{"source": "patent US20210177823A1", "about": "“NEUROMODULATING COMPOSITIONS AND RELATED THERAPEUTIC METHODS FOR THE TREATMENT OF CANCER” (Flagship Pioneering Innovations V, Inc., priority 2016, published 2021)", "key": {"MIAPaCa2 Fluc cells": {"tested_on": "MIAPaCa2 Fluc cells", "test": "Orthotopic MIAPACA2 pancreatic cancer model, tumor weight at end of study", "format": "in vivo, Nude mice (Nu/Nu)", "conditions": "daily IP, three weeks after initiation of dosing; for reduction in tumor weight at the end of study: compared to vehicle-treated group", "protocol": "MIAPaCa2 Fluc cells were grown in DMEM tissue culture media with 10% fetal calf serum, 2.5% Horse Serum, 1% penicillin/streptomycin and Puromycin (20 ug/mL). On the day of implantation, cells were washed in PBS, trypsinized and resuspended at a density of 2×10^6 cells/ml in a Matrigel solution prior to being implanted into the pancreas a volume of 0.05 mL using a 25 G needle. Nude mice (Nu/Nu) were anesthetized and the pancreas exposed via peritoneal incision and physical displacement of the spleen. Cells were injected into the pancreas in a total volume of 0.05 mL and the surgical wound closed with VetBond. Bioluminescence was assessed by administration of D-luciferin and imaging on an IVIS system. Mice with leakage of bioluminescent signal immediately after surgery were removed from study. Mice were randomized into groups of equal mean bioluminescence approximately 14 days post-implant. […] One group of mice received haloperidol alone, a second group received gemcitabine chemotherapy (the standard of care for human pancreatic cancer treatment), and a third group received a combination of haloperidol and gemcitabine. For groups also receiving gemcitabine, gemcitabine was dosed 50 mg/kg IP daily. Tumor growth was determined bi-weekly with bioluminescent measurement. The study was terminated three weeks after initiation of drug dosing. At termination, mice were sacrificed and pancreas collected and weighed."}, "[1]": {"tested_on": "NCI-H82 small cell lung cancer cells", "test": "Cancer cell growth in low-serum spheroid culture, Cell Titer Glo readout", "format": "cell-based", "conditions": "at low micromolar concentration; tested 10 nM-10 uM", "protocol": "(§1) Cancer cell lines were grown in appropriate cell culture medium. On day 0, cells were plated in black organogenix nanocult 96-well plates with low-bind honeycomb pattern. Cells were plated in a low serum medium to increase the dynamic range observable for growth promotion. Within three days spheroids were visible. On day 1 post plating, compounds were added at a range of doses to the cells, between mid-nanomolar and low micromolar, spanning at least a 100× dose range. On day 4 post plating, number of cells are quantified by staining with Cell Titer Glo and reading on a plate reader. We observed that adenosine at 10-200 μM enhances the growth of multiple pancreatic cancer cell lines (CFPAC, PANC-1, PL45, ASPC-1, CAPAN-1, CAPAN-2) by at least 10% increased signal over 24 hours than untreated cells. Upon follow-up of the adenosine pathway, we performed a similar assay with chemical antagonists of adenosine receptors at a range of concentrations between 10 nM-10 uM."}, "[2]": {"tested_on": "patient-derived xenograft tumors from patient 5197", "test": "SCLC PDX subcutaneous tumor with implanted microdose drug delivery device, immunohistochemistry (CC3, phospho-AKT)", "format": "in vivo, nude mice", "conditions": "intratumoral device reservoir, 24 hours in situ; patient 5197 PDX", "protocol": "(§2) Small cell lung cancer cells derived from a human donor (CrownBio, San Diego Calif.) were injected subcutaneously into the flanks of nude mice. Tumors were grown to a size of approximately 6-10 mm before device implantation.\n(§3) Microdose drug delivery devices were manufactured as described in Jonas et al., Sci. Transl. Med. 7, 284ra57 (2015). Briefly, cylindrical, micro-scale devices with 0.82 (diameter)×4 mm (length) were manufactured from medical-grade Delrin acetyl resin blocks (DuPont) by micromachining (CNC Micromachining Center, Cameron). Circular reservoirs were shaped on the outer surface of devices in dimensions of 230 um (diameter)×250 um (depth). Drug-polymer mixtures were packed into device reservoirs using a tapered, metal needle (Electron Microscopy Sciences) until the reservoirs were completely filled.\nDevices were implanted directly into the mouse tumor using a 19-gauge spinal biopsy needle (Angiotech) and a retractable needle obturator to push the device into the tissue. Devices containing the drugs remained in situ for 24 hours.\n(§4) The flank tumor was excised and the tissue containing the device was fixed for 24 hours in 10% formalin and perfused with paraffin. This specimen was sectioned using a standard microtome and tissue sections were collected from each reservoir. Sections were antibody-stained by standard immunohistochemistry using antibodies against cleaved-caspase-3 (CC3), KI-67, and phospho-AKT (Cell Signaling) and scored using an ImageJ image (v1.48) analysis algorithm in a blinded manner."}, "[3]": {"tested_on": "Glioblastoma lines A172, LN-18, T98G, LN-229, U87 MG, and U118 MG", "test": "Colony formation assay in glioblastoma cell lines (Cyto60 fluorescence)", "format": "cell-based", "conditions": "1 μM to 20 μM, day 9, LN-229, U87, U118", "protocol": "Glioblastoma lines A172, LN-18, T98G, LN-229, U87 MG, and U118 MG were passaged in culture per manufacturer's recommendations.\nOn day 0 of the experiment, cells were plated in 24 well plates at a density of 500 cells per well in triplicate. On day 1, DRD2 antagonists haloperidol and L741,626 were added to the wells at a range of concentrations between 1 μM and 20 μM. Media was changed every three days. On day 9 of the experiment, cells were fixed with formalin and stained with Cyto60 (a nucleic acid stain). Fluorescence was read on a Licor-Odyssey imager to assess the number of viable cells in the assay."}, "[4]": {"tested_on": "patient-derived xenograft tumors from patient 5217", "test": "SCLC PDX subcutaneous tumor with implanted microdose drug delivery device, immunohistochemistry", "format": "in vivo, nude mice", "conditions": "patient 5217 PDX, ~10× lower DRD2 mRNA than patient 5197; device 24 hours in situ", "protocol": "as §2, §3\nDevices were implanted directly into the mouse tumor using a 19-gauge spinal biopsy needle (Angiotech) and a retractable needle obturator to push the device into the tissue. […]\nas §4, with “This specimen was sectioned using a standard microtome and tissue sections were collected from each reservoir.” left out"}, "[5]": {"tested_on": "BXPC3 pancreatic cancer cells", "test": "Cancer cell growth in low-serum spheroid culture, Cell Titer Glo readout", "format": "cell-based", "conditions": "at low micromolar concentration; tested 10 nM-10 uM", "protocol": "as §1"}, "[6]": {"tested_on": "pancreatic cancer cell lines (CFPAC, PANC-1, PL45, ASPC-1, CAPAN-1, CAPAN-2)", "test": "Cancer cell growth in low-serum spheroid culture, Cell Titer Glo readout", "format": "cell-based", "conditions": "adenosine at 10-200 μM, over 24 hours"}}, "note": "“Also recorded” adds a separate entry of the source.", "data": [{"compound": "Nc1ccn([C@@H]2O[C@H](CO)[C@@H](O)C2(F)F)c(=O)n1", "note": "[gemcitabine]", "values": [{"measurement": "reduction in tumor weight at the end of study", "setting": "MIAPaCa2 Fluc cells", "result": "equivalent"}]}, {"compound": "O=C(Cc1ccccc1)Nc1nc2ccc(Cl)cc2c2nc(-c3ccco3)nn12", "note": "[MRS-1220]", "values": [{"measurement": "inhibition of growth of NCI-H82 small cell lung cancer cells", "setting": "[1]", "result": "inhibited the growth"}]}, {"compound": "N.N.[Cl][Pt][Cl]", "note": "[cisplatin]", "values": [{"measurement": "cell killing as measured by CC3 positive tissue", "setting": "[2]", "result": "minimal cell killing"}]}, {"compound": "O=C(CCCN1CCC(O)(c2ccc(Cl)cc2)CC1)c1ccc(F)cc1", "note": "[haloperidol]", "values": [{"measurement": "number of glioblastoma cells growing in culture compared to DMSO control", "setting": "[3]", "result": "reduce the number of glioblastoma cells"}, {"measurement": "reduction in tumor weight at the end of study", "setting": "MIAPaCa2 Fluc cells", "result": "~50", "unit": "%"}, {"measurement": "tumor weight at the end of study", "setting": "MIAPaCa2 Fluc cells; vehicle 300 mg", "result": 150, "unit": "mg"}]}, {"compound": "OC1(c2ccc(Cl)cc2)CCN(Cc2c[nH]c3ccccc23)CC1", "note": "[L-741,626]", "values": [{"measurement": "impact of treatment on tumor", "setting": "[4]", "result": "at all not impacted; also recorded: not impacted at all"}, {"measurement": "number of glioblastoma cells growing in culture compared to DMSO control", "setting": "[3]", "result": "reduce the number of glioblastoma cells"}, {"measurement": "cell killing as measured by CC3 positive tissue", "setting": "[2]", "result": "dose-dependent cell killing"}, {"measurement": "phospho-AKT staining gradient (dopamine receptor signaling)", "setting": "[2]", "result": "negative gradient"}]}, {"compound": "CCCn1c(=O)c2[nH]c(C34CC5CC(CC3C5)C4)nc2n(CCC)c1=O", "note": "[KW3902]", "values": [{"measurement": "inhibition of growth of BXPC3 pancreatic cancer cells", "setting": "[5]", "result": "inhibited the growth"}, {"measurement": "inhibition of growth of NCI-H82 small cell lung cancer cells", "setting": "[1]", "result": "inhibited the growth"}]}, {"compound": "Nc1ncnc2c1ncn2[C@@H]1O[C@H](CO)[C@@H](O)[C@H]1O", "note": "[adenosine]", "values": [{"measurement": "enhancement of growth, increased signal than untreated cells", "setting": "[6]", "result": "at least 10%"}]}]}
